Tests used:
Assay in all cases: combination Emax (second highest fraction inhibited in the dose matrix, 72 h); higher = more inhibition; extreme values may be limits of the assay
[1] = tested on: 639-V (Bladder Carcinoma)
How it was run: (§1)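 Cell lines grown in DMEM/F12 or RPMI with 10% FBS were plated in 1536-well plates and held 24 hours at 37°C, 5% CO2 before 72 hours of exposure to two-drug dose matrices, with DMSO typically at 0.2%. CellTiter-Glo 2.0 luminescence gave viability, which was converted to inhibition. Vehicle wells were set to 0 and blank wells to 1. Combination Emax is the second-highest inhibition in the matrix, and Bliss excess is the observed combination effect minus the expected EA + EB − EA·EB, where EA and EB are the single-agent effects.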

[2] = tested on: KYSE-410 (Esophageal Squamous Cell Carcinoma)
How it was run: as §1

[3] = tested on: SW626 (Colorectal Carcinoma)
How it was run: as §1

[4] = tested on: OC-314 (Ovarian Carcinoma)
How it was run: as §1

[5] = tested on: RT-112 (Bladder Carcinoma)
How it was run: as §1

[6] = tested on: HDLM-2 (Hodgkin's Lymphoma)
How it was run: as §1

[7] = tested on: CAL-51 (Breast Carcinoma)
How it was run: as §1

[8] = tested on: OVCAR-8 (Ovarian Carcinoma)
How it was run: as §1

[9] = tested on: UMC-11 (Other Solid Carcinomas)
How it was run: as §1

[10] = tested on: NCI-H2461 (Mesothelioma)
How it was run: as §1

[11] = tested on: 8305C (Thyroid Gland Carcinoma)
How it was run: as §1

[12] = tested on: SU-DHL-6 (B-Cell Non-Hodgkin's Lymphoma)
How it was run: as §1

[13] = tested on: Mewo (Melanoma)
How it was run: as §1

[14] = tested on: NCI-H2795 (Mesothelioma)
How it was run: as §1

[15] = tested on: K5 (Thyroid Gland Carcinoma)
How it was run: as §1

[16] = tested on: Hs-633T (Other Solid Carcinomas)
How it was run: as §1

[17] = tested on: NCI-H747 (Colorectal Carcinoma)
How it was run: as §1

[18] = tested on: HO-1-u-1 (Oral Cavity Carcinoma)
How it was run: as §1

[19] = tested on: MDA-MB-468 (Breast Carcinoma)
How it was run: as §1

Row | SMILES | combination Emax [1] | combination Emax [2] | combination Emax [3] | combination Emax [4] | combination Emax [5] | combination Emax [6] | combination Emax [7] | combination Emax [8] | combination Emax [9] | combination Emax [10] | combination Emax [11] | combination Emax [12] | combination Emax [13] | combination Emax [14] | combination Emax [15] | combination Emax [16] | combination Emax [17] | combination Emax [18] | combination Emax [19]
1 | COc1nnc2ccc(N3CCC(c4ccc(OCCN5CCN(C)C(=O)[C@H]5C)cc4)CC3)nn12 [AZD5153] + C=CCn1c(=O)c2cnc(Nc3ccc(N4CCN(C)CC4)cc3)nc2n1-c1cccc(C(C)(C)O)n1 [AZD1775] (first compound max 1 µM, partner max 1 µM) | 0.714 | 0.491 | 0.75 | 0.912 | 0.661 | 0.732 | 0.956 | 0.863 | 0.9 | 0.655 | 0.674 | 0.941 | 0.645 | 0.597 | 0.719 | 0.798 | 0.782 | 0.735 | 
2 | COc1cc2ncnc(Nc3ccc(F)c(Cl)c3)c2cc1OCCCN1CCOCC1 [Gefitinib] + CC(C)n1c(=O)n(C)c2cnc3cc(F)c(-c4ccc(OCCCN5CCCCC5)nc4)cc3c21 [AZD1390] (first compound max 10 µM, 7x7, partner max 0.3 µM) | 0.158 | 0.362 | 0.0985 | 0.255 | 0.176 | 0.192 | 0.068 | 0.223 | 0.0797 | 0.256 | 0.298 | 0.433 | 0.0376 | 0.324 | 0.0692 | 0.203 | 0.369 | 0.487 | 
3 | COc1nnc2ccc(N3CCC(c4ccc(OCCN5CCN(C)C(=O)[C@H]5C)cc4)CC3)nn12 [AZD5153] + Cn1cnc2c(F)c(Nc3ccc(Br)cc3Cl)c(C(=O)NOCCO)cc21 [Selumetinib] (first compound max 1 µM, 7x7, partner max 10 µM) | 0.676 | 0.345 | 0.881 | 0.795 | 0.436 | 0.393 | 0.712 | 0.759 | 0.704 | 0.501 | 0.576 | 0.913 | 0.663 | 0.853 | 0.845 | 0.748 | 0.937 | 0.558 | 
4 | COc1nnc2ccc(N3CCC(c4ccc(OCCN5CCN(C)C(=O)[C@H]5C)cc4)CC3)nn12 [AZD5153] + CCN(CCO)CCCOc1ccc2c(Nc3cc(CC(=O)Nc4cccc(F)c4)[nH]n3)ncnc2c1 [AZD2811] (first compound max 1 µM, 7x7, partner max 1 µM) | 0.681 | 0.313 | 0.735 | 0.884 | 0.357 | 0.434 | 0.807 | 0.804 | 0.843 | 0.592 | 0.594 | 0.903 | 0.593 | 0.497 | 0.714 | 0.746 | 0.734 | 0.578 | 
5 | C[C@@H](c1ccc2nccn2c1)n1nnc2ncc(-c3cnn(C)c3)nc21 [Savolitinib] + Cc1c2c(nn1C)CSCc1cc(n(C)n1)CSc1cc(c3ccccc3c1)OCCCc1c(C(=O)O)n(C)c3c-2c(Cl)ccc13 [AZD5991] (first compound max 1 µM, 7x7, partner max 1 µM) | 0.21 | 0.181 | 0.221 | 0.163 | 0.602 | 0.962 | 0.152 | 0.0965 | 0.275 | 0.345 | 0.196 | 1 | 0.265 | 0.574 | 0.14 | 0.12 | 0.337 | 0.196 | 
6 | C=CCn1c(=O)c2cnc(Nc3ccc(N4CCN(C)CC4)cc3)nc2n1-c1cccc(C(C)(C)O)n1 [AZD1775] + CCc1c2c(nc3ccc(O)cc13)-c1cc3c(c(=O)n1C2)COC(=O)[C@]3(O)CC [SN-38] (first compound max 1 µM, partner max 0.3 µM) |  |  |  | 0.996 | 0.985 | 0.778 |  |  |  | 0.702 | 0.589 | 1 | 0.676 | 0.779 | 0.594 | 0.868 |  | 0.869 | 0.828
7 | CS(=O)(=O)CCNCc1ccc(-c2ccc3ncnc(Nc4ccc(OCc5cccc(F)c5)c(Cl)c4)c3c2)o1 [Lapatinib] + NC1(c2ccc(-c3nc4ccn5c(=O)[nH]nc5c4cc3-c3ccccc3)cc2)CCC1 [MK-2206] (first compound max 10 µM, 7x7, partner max 10 µM) |  |  |  | 0.873 | 0.917 | 0.625 |  |  |  | 0.495 | 0.929 | 1 | 0.521 | 0.948 | 0.95 | 0.905 | 0.898 | 0.943 | 0.959
8 | Cc1nc(-c2cn3c(n2)-c2ccc(-c4cnn(C(C)(C)C(N)=O)c4)cc2OCC3)n(C(C)C)n1 [Taselisib] + O=C(Nc1ccc2[nH]nc(-c3ccncc3)c2c1)[C@@H]1CCN(CC(=O)N2CCN(c3ccc(-c4ncccn4)cc3)CC2)C1 [SCH772984] (first compound max 10 µM, 7x7, partner max 5 µM) |  |  |  | 0.747 | 0.802 | 0.345 |  |  |  | 0.6 | 0.843 | 1 | 0.777 | 1 | 0.954 | 0.834 |  | 0.933 | 0.747
9 | Cn1cnc2c(F)c(Nc3ccc(Br)cc3Cl)c(C(=O)NOCCO)cc21 [Selumetinib] + CC(C)n1c(=O)n(C)c2cnc3cc(F)c(-c4ccc(OCCCN5CCCCC5)nc4)cc3c21 [AZD1390] (first compound max 10 µM, 7x7, partner max 0.3 µM) | 0.238 | 0.163 | 0.562 | 0.211 | 0.353 | 0.138 | 0.157 | 0.132 | 0.0797 | 0.337 | 0.379 | 0.265 | 0.403 | 0.846 | 0.51 | 0.433 | 0.702 | 0.188 | 
10 | COc1nnc2ccc(N3CCC(c4ccc(OCCN5CCN(C)C(=O)[C@H]5C)cc4)CC3)nn12 [AZD5153] + CC1(C)CCC(CN2CCN(c3ccc(C(=O)NS(=O)(=O)c4ccc(NCC5CCOCC5)c([N+](=O)[O-])c4)c(Oc4cnc5[nH]ccc5c4)c3)CC2)=C(c2ccc(Cl)cc2)C1 [Venetoclax] (first compound max 1 µM, 7x7, partner max 1 µM) | 0.582 | 0.266 | 0.689 | 0.814 | 0.239 | 0.612 | 0.673 | 0.661 | 0.769 | 0.517 | 0.524 | 1 | 0.563 | 0.465 | 0.668 | 0.564 | 0.702 | 0.55 | 
11 | Cn1cnc2c(F)c(Nc3ccc(Br)cc3Cl)c(C(=O)NOCCO)cc21 [Selumetinib] + C[C@@H]1COCCN1C2=NC(=NC(=C2)C3(CC3)[S@](=N)(=O)C)C4=C5C=CNC5=NC=C4 [AZD6738] (first compound max 10 µM, 7x7, partner max 10 µM) | 0.464 | 0.302 | 0.681 | 0.753 | 0.555 | 0.243 | 0.964 | 0.739 | 0.603 | 0.571 | 0.534 | 0.405 | 0.466 | 0.855 | 0.689 | 0.748 | 0.776 | 0.718 | 
12 | Cn1cnc2c(F)c(Nc3ccc(Br)cc3Cl)c(C(=O)NOCCO)cc21 [Selumetinib] + C=CCn1c(=O)c2cnc(Nc3ccc(N4CCN(C)CC4)cc3)nc2n1-c1cccc(C(C)(C)O)n1 [AZD1775] (first compound max 10 µM, partner max 1 µM) | 0.455 | 0.431 | 0.724 | 0.452 | 0.61 | 0.71 | 0.893 | 0.872 | 0.584 | 0.569 | 0.481 | 0.616 | 0.47 | 0.851 | 0.596 | 0.628 | 0.793 | 0.456 | 
13 | COc1nnc2ccc(N3CCC(c4ccc(OCCN5CCN(C)C(=O)[C@H]5C)cc4)CC3)nn12 [AZD5153] + Cc1c2c(nn1C)CSCc1cc(n(C)n1)CSc1cc(c3ccccc3c1)OCCCc1c(C(=O)O)n(C)c3c-2c(Cl)ccc13 [AZD5991] (first compound max 1 µM, 7x7, partner max 1 µM) | 0.653 | 0.348 | 0.704 | 0.842 | 0.922 | 0.987 | 0.917 | 0.905 | 0.994 | 0.498 | 0.545 | 1 | 0.719 | 0.864 | 0.678 | 0.631 | 0.734 | 0.561 | 
14 | CS(=O)(=O)CCNCc1ccc(-c2ccc3ncnc(Nc4ccc(OCc5cccc(F)c5)c(Cl)c4)c3c2)o1 [Lapatinib] + Cn1cnc2c(F)c(Nc3ccc(Br)cc3Cl)c(C(=O)NOCCO)cc21 [Selumetinib] (first compound max 10 µM, 7x7, partner max 10 µM) |  |  |  | 0.691 | 0.486 | 0.372 |  |  |  | 0.488 | 0.542 | 0.974 | 0.503 | 0.893 | 0.597 | 0.478 |  | 0.789 | 0.882

Reference: the supplement of paper PMC11061612
